Test results published in patent US7815803B2, “Preparation of samples for LC-MS/MS using magnetic particles” (Roche Diagnostics Operations, Inc., priority 2007, dated 2010).

Columns and labels:
[1] = Pooled serum from itraconazole treated patients, LC-MS/MS validation; assay type: in vivo, human; conditions: n=9
Protocol: A validation protocol was performed in three independent analytical series. In each series a five-point calibration was performed using a commercially available calibration material for itraconazole measurement (2,000 μg/l, 1,000 μg/l, 500 μg/l, 250 μg/l, and 125 μg/l; Recipe, Munich, Germany). Aliquots of pooled serum from itraconazole treated patients were analyzed in triplicate in each series to calculate a total coefficient of variation (n=9). Commercially available quality control materials (ClinCheck, Recipe, Munich, Germany) in two concentration ranges (target concentrations 150 μg/l, and 2,900 μg/l) were analyzed in the three series.
Linear calibration lines (r>0.99) were obtained in all series. For the pooled serum a total coefficient of variation of 3.4% was observed (mean concentration 380 μg/l); all quality control samples were found within the predefined accepted ranges (±10% of the target concentrations).

[2] = in vivo; cited from earlier work
[3] = in vitro; cited from earlier work

Compound | mean concentration in pooled serum [1] [ng/mL] | therapeutic trough concentration [2] [µg/L] | potency relative to cyclosporin [3]
CCC(C)n1ncn(-c2ccc(N3CCN(c4ccc(OCC5COC(Cn6cncn6)(c6ccc(Cl)cc6Cl)O5)cc4)CC3)cc2)c1=O (centres unmarked) [itraconazole] | 380 |  | 
CO[C@H]1C[C@@H]2CC[C@@H](C)[C@@](O)(O2)C(=O)C(=O)N2CCCC[C@H]2C(=O)O[C@H]([C@H](C)C[C@@H]2CC[C@@H](O)[C@H](OC)C2)CC(=O)[C@H](C)/C=C(\C)[C@@H](O)[C@@H](OC)C(=O)[C@H](C)C[C@H](C)/C=C/C=C/C=C/1C [Sirolimus, sirolimus] |  | 5 to 15 | 
COc1c(C)c2c(c(O)c1C/C=C(\C)CCC(=O)OCCN1CCOCC1)C(=O)OC2 [Mycophenolate mofetil, mycophenolate mofetil] |  | 1000 to 3500 | 
C=CC[C@@H]1/C=C(\C)C[C@H](C)C[C@H](OC)[C@H]2O[C@@](O)(C(=O)C(=O)N3CCCC[C@H]3C(=O)O[C@H](/C(C)=C/[C@@H]3CC[C@@H](O)[C@H](OC)C3)[C@H](C)[C@@H](O)CC1=O)[C@H](C)C[C@@H]2OC [Tacrolimus, tacrolimus] |  | 5 to 20 | up to 100 times
